Test system: Jurkat T cells
Assay: mRNA sequencing of activated Jurkat T cells
Type: cell-based, human

With C=CC[C@@H]1/C=C(\C)C[C@H](C)C[C@H](OC)[C@H]2O[C@@](O)(C(=O)C(=O)N3CCCC[C@H]3C(=O)O[C@H](/C(C)=C/[C@@H]3CC[C@@H](O)[C@H](OC)C3)[C@H](C)[C@@H](O)CC1=O)[C@H](C)C[C@@H]2OC [FK506, Tacrolimus, reference compound] the “CRIM1 FPKM” value (P + I) was 0.305 FPKM, the “CRTAM FPKM” value (P + I) was 3.325 FPKM and the “CSF1 FPKM” value (P + I) was 1.706 FPKM. For the same compound, the “CSF2 FPKM” value (P + I) was 0 FPKM, the “CST7 FPKM” value (P + I) was 2.338 FPKM and the “CXCL8 FPKM” value (P + I) was 0.937 FPKM. For the same compound, the “CXCR3 FPKM” value (P + I) was 0.503 FPKM, the “DSTYK FPKM” value (P + I) was 3.501 FPKM and the “FBXO34 FPKM” value (P + I) was 14.612 FPKM. For the same compound, the “FMNL2 FPKM” value (P + I) was 2.726 FPKM, the “FOSL2 FPKM” value (P + I) was 2.204 FPKM and the “FOXO1 FPKM” value (P + I) was 1.77 FPKM. For the same compound, the “FXYD5 FPKM” value (P + I) was 41.346 FPKM, the “FYN FPKM” value (P + I) was 16.523 FPKM and the “GFOD1 FPKM” value (P + I) was 4.187 FPKM. For the same compound, the “GRK5 FPKM” value (P + I) was 8.481 FPKM, the “GTDC1 FPKM” value (P + I) was 4.629 FPKM and the “IL2 FPKM” value (P + I) was 0.287 FPKM. The “IL3 FPKM” value (P + I) was 0.062 FPKM, the “IL21R FPKM” value (P + I) was 2.244 FPKM and the “IL21R-AS1 FPKM” value (P + I) was 1.927 FPKM. The “IQCJ-SCHIP1 FPKM” value (P + I) was 1.657 FPKM, the “IRF4 FPKM” value (P + I) was 0.423 FPKM and the “IRF8 FPKM” value (P + I) was 1.19 FPKM. The “ISM1 FPKM” value (P + I) was 0.726 FPKM, the “JAK2 FPKM” value (P + I) was 5.248 FPKM and the “KCNK1 FPKM” value (P + I) was 10.967 FPKM. For the same compound, the “KCNK5 FPKM” value (P + I) was 3.906 FPKM, the “LAMP3 FPKM” value (P + I) was 6.412 FPKM and the “LAX1 FPKM” value (P + I) was 8.052 FPKM. For the same compound, the “LIF FPKM” value (P + I) was 0.143 FPKM, the “LOC729603 FPKM” value (P + I) was 2.179 FPKM and the “LRRC8B FPKM” value (P + I) was 3.555 FPKM. For the same compound, the “LTBP4 FPKM” value (P + I) was 8.427 FPKM, the “MAP2K3 FPKM” value (P + I) was 41.815 FPKM and the “MIR6775 FPKM” value (P + I) was 19.643 FPKM. For the same compound, the “MIR6821 FPKM” value (P + I) was 13.626 FPKM, the “MYO1D FPKM” value (P + I) was 4.59 FPKM and the “NDFIP1 FPKM” value (P + I) was 22.485 FPKM. The “NFATC1 FPKM” value (P + I) was 3.793 FPKM, the “NPDC1 FPKM” value (P + I) was 4.328 FPKM and the “NR4A2 FPKM” value (P + I) was 0.04 FPKM. For the same compound, the “NTRK1 FPKM” value (P + I) was 0.836 FPKM, the “PAM FPKM” value (P + I) was 1.483 FPKM and the “PDGFA FPKM” value (P + I) was 3.25 FPKM. The “PELI1 FPKM” value (P + I) was 8.175 FPKM, the “PHACTR2 FPKM” value (P + I) was 2.927 FPKM and the “PHEX FPKM” value (P + I) was 0.213 FPKM. The “PIM3 FPKM” value (P + I) was 42.827 FPKM, the “PKIA FPKM” value (P + I) was 13.962 FPKM and the “PLK3 FPKM” value (P + I) was 5.257 FPKM. For the same compound, the “PLS3 FPKM” value (P + I) was 0.052 FPKM, the “POU2AF1 FPKM” value (P + I) was 2.274 FPKM and the “PPIF FPKM” value (P + I) was 50.291 FPKM. For the same compound, the “PTPN6 FPKM” value (P + I) was 20.906 FPKM, the “PTPN22 FPKM” value (P + I) was 6.37 FPKM and the “RDH10 FPKM” value (P + I) was 5.856 FPKM. The “REL FPKM” value (P + I) was 4.749 FPKM, the “RGS16 FPKM” value (P + I) was 1.172 FPKM and the “SCHIP1 FPKM” value (P + I) was 1.535 FPKM. For the same compound, the “SERPINB2 FPKM” value (P + I) was 2.905 FPKM, the “SHC4 FPKM” value (P + I) was 0.663 FPKM and the “SLAMF1 FPKM” value (P + I) was 0.217 FPKM. The “SLC35E4 FPKM” value (P + I) was 0.952 FPKM, the “SORBS1 FPKM” value (P + I) was 0.4 FPKM and the “SPRY1 FPKM” value (P + I) was 4.074 FPKM. The “STAT5A FPKM” value (P + I) was 3.347 FPKM, the “TAGAP FPKM” value (P + I) was 4.352 FPKM and the “TBC1D4 FPKM” value (P + I) was 12.549 FPKM. For the same compound, the “TBC1D20 FPKM” value (P + I) was 17.7 FPKM, the “TDRD9 FPKM” value (P + I) was 1.245 FPKM and the “TIAM2 FPKM” value (P + I) was 0.27 FPKM. For the same compound, the “TM4SF1 FPKM” value (P + I) was 0.439 FPKM, the “TNFRSF4 FPKM” value (P + I) was 2.933 FPKM and the “TNFSF9 FPKM” value (P + I) was 2.568 FPKM. The “TNFSF14 FPKM” value (P + I) was 1.023 FPKM, the “TNS3 FPKM” value (P + I) was 0.678 FPKM and the “VAMP1 FPKM” value (P + I) was 14.793 FPKM. The “XCL1 FPKM” value (P + I) was 0 FPKM, the “XCL2 FPKM” value (P + I) was 0 FPKM and the “ZNF704 FPKM” value (P + I) was 0.014 FPKM. The “ZNF827 FPKM” value (P + I) was 1.521 FPKM, the “ABCB10 FPKM” value (P+I) was 10.164 FPKM and the “ACTG1 FPKM” value (P+I) was 1002.221 FPKM. The “ADAM19 FPKM” value (P+I) was 5.532 FPKM, the “ADD3 FPKM” value (P+I) was 13.6 FPKM and the “ADORA2B FPKM” value (P+I) was 8.219 FPKM. The “AGO2 FPKM” value (P+I) was 13.242 FPKM, the “AIM1 FPKM” value (P+I) was 37.047 FPKM and the “APOBEC3A_B FPKM” value (P+I) was 10.242 FPKM. For the same compound, the “APOBEC3B FPKM” value (P+I) was 41.16 FPKM, the “APOBEC3C FPKM” value (P+I) was 16.851 FPKM and the “APOBEC3D FPKM” value (P+I) was 10.187 FPKM. For the same compound, the “APOL2 FPKM” value (P+I) was 89.267 FPKM, the “APOL6 FPKM” value (P+I) was 46.937 FPKM and the “AQP3 FPKM” value (P+I) was 66.037 FPKM. For the same compound, the “ARAP2 FPKM” value (P+I) was 15.321 FPKM, the “ARC FPKM” value (P+I) was 9.966 FPKM and the “ARHGAP23 FPKM” value (P+I) was 2.576 FPKM.
